In patent publication US20160242416A1, “FUNGICIDAL ISOXAZOLINE CARBINOLS” (E I DU PONT DE NEMOURS AND COMPANY, priority 2015, published 2016):

How the values were obtained:
[1] = system: Erysiphe graminis f sp. tritici; test: Test G: wheat powdery mildew, preventive spray on wheat seedlings; settings: 10 ppm; wheat powdery mildew; 100 = 100% disease control, 0 = no control
Text: (§1) General protocol for preparing test solutions for Tests A-G: the test compounds were first dissolved in acetone in an amount equal to 3% of the final volume and then suspended at the desired concentration (in ppm) in acetone and purified water (50/50 mix by volume) containing 250 ppm of the surfactant PEG400 (polyhydric alcohol esters). The resulting test suspensions were then used in Tests A-G. Compounds were sprayed at a concentration of 50 ppm (*) or 10 ppm to the point of run-off on the test plants, the equivalent of a rate of 200 g/ha or 40 g/ha, respectively.
The test solution was sprayed to the point of run-off on wheat seedlings. The following day the seedlings were inoculated with a spore dust of Erysiphe graminis f sp. tritici, (the causal agent of wheat powdery mildew) and incubated in a growth chamber at 20° C. for 8 days, after which time visual disease ratings were made.
(§2) Compounds with an asterisks (*) were applied at a concentration of 50 ppm, otherwise test solutions were applied at 10 ppm.

[2] = system: Botrytis cinerea; test: Test B: gray mold, preventive spray on tomato seedlings; settings: 10 ppm; gray mold on tomato; 100 = 100% disease control, 0 = no control
Text: as §1
The test solution was sprayed to the point of run-off on tomato seedlings. The following day the seedlings were inoculated with a spore suspension of Botrytis cinerea (the causal agent of gray mold on many crops) and incubated in a saturated atmosphere at 20° C. for 48 h, and moved to a growth chamber at 27° C. for 2 days, after which time visual disease ratings were made.
as §2

[3] = system: Zymoseptoria tritici; test: Test E: wheat leaf blotch, preventive spray on wheat seedlings; settings: 10 ppm; wheat leaf blotch; 100 = 100% disease control, 0 = no control
Text: as §1
The test solution was sprayed to the point of run-off on wheat seedlings. The following day the seedlings were inoculated with a spore suspension of Zymoseptoria tritici (the causal agent of wheat leaf blotch) and incubated in a saturated atmosphere at 24° C. for 48 h, and then moved to a growth chamber at 20° C. for 17 days, after which time visual disease ratings were made.
as §2

[4] = system: Stagonospora nodorum; test: Test D: wheat glume blotch, preventive spray on wheat seedlings; settings: 10 ppm; wheat glume blotch; 100 = 100% disease control, 0 = no control
[5] = system: Puccinia recondita f sp. tritici; test: Test F: wheat leaf rust, preventive spray on wheat seedlings; settings: 10 ppm; wheat leaf rust; 100 = 100% disease control, 0 = no control

| SMILES | Test G rating (% disease control) [1] [%] | Test B rating (% disease control) [2] [%] | Test E rating (% disease control) [3] [%] | Test D rating (% disease control) [4] [%] | Test F rating (% disease control) [5] [%] |
| --- | --- | --- | --- | --- | --- |
| OC(Cn1cncn1)(C1=NOC(CSc2ccccc2)C1)c1ccc(Cl)cc1 (single isomer, unassigned) [Compound 51] | 81 | 16 | 1 | 89 | 0 |
| OC(Cn1cncn1)(C1=NOC(COc2ccc(OCc3ccccc3)cc2)C1)c1ccc(Cl)cc1 (single isomer, unassigned) [Compound 69] | 94 | 27 | 25 | 38 | 100 |
| CC(C)(C)C(O)(Cn1cncn1)C1=NOC(COCc2ccccc2)C1 (single isomer, unassigned) [Compound 59] | 89 | 0 | 2 | 92 | 80 |
| OC(Cn1cncn1)(C1=NOC(c2ccc(Cl)cc2)C1)C1CCCCC1 (single isomer, unassigned) [Compound 196] | 100 | 0 | 12 | 99 | 100 |
| CC(C)(C)C(O)(Cn1cncn1)C1=NOC(CCc2ccc(C(F)(F)F)cc2)C1 (single isomer, unassigned) [Compound 14] | 99 | 0 | 4 | 88 | 100 |
| CCCCC(O)(Cn1cncn1)C1=NOC(c2ccc(Cl)cc2)C1 (single isomer, unassigned) [Compound 156] | 100 | 0 | 19 | 98 | 100 |
| CC(C)(C)C(O)(Cn1cncn1)C1=NOC(COc2ccc3c(c2)OCO3)C1 (single isomer, unassigned) [Compound 45] | 87 | 70 | 0 | 99 | 67 |
| CC(C)(C)C(O)(Cn1cncn1)C1=NOC(COc2ccc(Br)cc2)C1 (single isomer, unassigned) [Compound 182] | 100 | 99 | 96 | 99 | 100 |
| OC(Cn1cncn1)(C1=NOC(COc2ccc(F)cc2)C1)c1ccc(Cl)cc1 (single isomer, unassigned) [Compound 163] | 86 | 0 | 0 | 0 | 99 |
| CC(C)(C)C(O)(Cn1cncn1)C1=NOC(COCc2ccccc2)C1 (single isomer, unassigned) [Compound 60] | 90 | 0 | 3 | 73 | 28 |
| CC(C)(C)C(O)(Cn1cncn1)C1=NOC(COc2ccc3c(c2)OCO3)C1 (single isomer, unassigned) [Compound 46] | 73 | 19 | 0 | 76 | 85 |
| CSc1ccc(C2CC(C(O)(Cn3cncn3)c3ccc(Cl)cc3)=NO2)cc1 (single isomer, unassigned) [Compound 107] | 99 | 0 | 58 | 32 | 100 |
| OC(Cn1cncn1)(C1=NOC(c2ccc(Cl)cc2)C1)C1CCCCC1 (single isomer, unassigned) [Compound 197] | 98 | 11 | 0 | 92 | 100 |
| OC(Cn1cncn1)(C1=NOC(c2ccc(C(F)(F)F)cc2)C1)c1ccc(C(F)(F)F)cc1 (single isomer, unassigned) [Compound 154] | 83 | 0 | 1 | 0 | 52 |
| CC(C)(C)C(O)(Cn1cncn1)C1=NOC(Cc2ccc(Br)cc2)C1 (single isomer, unassigned) [Compound 53] | 99 | 70 | 20 | 99 | 100 |
| CC#CC(O)(Cn1cncn1)C1=NOC(c2ccc(Cl)cc2)C1 (stereo not drawn) [Compound 104, α-[5-(4-chlorophenyl)-4,5-dihydro-3-isoxazolyl]-α-1-propyn-1-yl-1H-1,2,4-triazole-1-ethanol] | 93 | 0 | 0 | 100 | 97 |
| CCCCC(O)(Cn1cncn1)C1=NOC(c2ccc(Cl)cc2)C1 (single isomer, unassigned) [Compound 155] | 100 | 0 | 2 | 100 | 100 |
| CC(C)(C)CC(O)(Cn1cncn1)C1=NOC(COc2ccc(Cl)cc2)C1 (single isomer, unassigned) [Compound 173] | 97 | 0 | 6 | 63 | 100 |
| CC(C)(C)CC(O)(Cn1cncn1)C1=NOC(c2ccc(Cl)cc2)C1 (single isomer, unassigned) [Compound 138] | 100 | 17 | 0 | 100 | 100 |
| CC(C)(C)C(O)(Cn1cncn1)C1=NOC(COc2ccc(I)cc2)C1 (single isomer, unassigned) [Compound 185] | 99 | 0 | 0 | 100 | 100 |
| Cn1nc(C(F)(F)F)cc1OCC1CC(C(O)(Cn2cncn2)C(C)(C)C)=NO1 (single isomer, unassigned) [Compound 47] | 84 | 19 | 3 | 0 | 76 |
| CC(C)(C)CC(O)(Cn1cncn1)C1=NOC(Cc2ccc(Cl)cc2)C1 (single isomer, unassigned) [Compound 207] | 100 | 0 | 44 | 99 | 100 |
| OC(Cn1cncn1)(C1=NOC(c2ccc(-n3cc(Br)cn3)cc2)C1)c1ccc(Cl)cc1 (single isomer, unassigned) [Compound 6] | 91 | 0 | 0 | 0 | 0 |
| CC(C)(C)C(O)(Cn1cncn1)C1=NOC(COC2CCCCC2)C1 (single isomer, unassigned) [Compound 92] | 13 | 0 | 3 | 10 | 0 |
